Results taken from PMC10791743, “Selective CK1α degraders exert antiproliferative activity against a broad range of human cancer cell lines” (Nature Communications, 2024).
Where “and” joins values, the source holds several entries; their conditions need not be identical. Equal entries are not always repeated.

Molecular target: CK1α (Homo sapiens, UniProt P48729+Q96SW2)
Test: In vivo PD: CK1α protein levels in MOLM-13 xenograft (western blot of human cells from bone marrow)
Set-up: quantified western blots of isolated human cells from the bone marrow of treated mice; endogenous in cells; host or cells: MOLM-13 xenograft cells from NSG mouse bone marrow, murine cells depleted; species or system NSG mice engrafted with MOLM-13 cells
Conditions: for CK1a quantified western blot signal, group mean (Mean 2): n 3, DMSO mean 0.9882; for CK1a quantified western blot signal, individual animals: relative to DMSO; for CK1α protein level in vivo: 48 h
Description: For the PD experiment, NSG mice engrafted with MOLM-13 cells were treated for 48 h with SJ3149 or DMSO vehicle in 4 groups: vehicle, 50 mg/kg once per day, or vehicle or 50 mg/kg twice per day (Fig. 6). After 48 h, the mice were sacrificed and human cells were isolated from the collected bone marrow and lysed for western blot analysis.
(§1) For the xenograft transplantation study, female NSG mice (NOD.Cg-Prkdc^scid Il2rg^tm1Wjl/SzJ, Strain #005557, The Jackson Laboratory) aged 6–8 weeks were transplanted with 100,000 MOLM-13 cells by tail-vein injection. 10 days post-transplantation, mice were treated with SJ3149 via intraperitoneal injections for the following 2-day dosing schedule: 50 mg/kg (1 dose every 12 h), and 50 mg/kg (1 dose every 24 h) with n = 3 per group. Control groups (n = 3) were treated with DMSO either 1 dose every 24 h or 1 dose every 12 h with equal volume as treatment groups. Mice were euthanized 48 h after the first treatment and bone marrow cells were collected. Murine cells were depleted using the EasySep Mouse/Human Chimera isolation kit ([…] Technologies #19849). NSG mice were housed in microisolation cages and kept under barrier conditions to keep them specific pathogen-free. The lights for NSG mice are on an automated 12-h on, 12-h off light cycle. The mouse room has a separate thermostat and humidistat to control temperature and humidity at the room level. Sex was not considered beyond female mice being most commonly used for cell line-derived xenografts. Ethical approval by the St. Jude Institutional Animal Care and Use Committee.
as §1, with “Female” for “For the xenograft transplantation study, female”

Chain of CK1α (P48729 whole entry): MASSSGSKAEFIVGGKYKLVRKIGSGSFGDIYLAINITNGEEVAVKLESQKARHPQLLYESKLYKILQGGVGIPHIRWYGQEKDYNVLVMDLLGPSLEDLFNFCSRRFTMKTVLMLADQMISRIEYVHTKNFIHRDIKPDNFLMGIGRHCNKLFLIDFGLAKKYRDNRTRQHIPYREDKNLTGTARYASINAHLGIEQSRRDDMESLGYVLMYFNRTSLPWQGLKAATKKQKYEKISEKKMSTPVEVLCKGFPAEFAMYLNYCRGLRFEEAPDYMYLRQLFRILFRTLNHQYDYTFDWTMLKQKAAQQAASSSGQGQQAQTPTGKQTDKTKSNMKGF
Chain of CK1α (Q96SW2 whole entry): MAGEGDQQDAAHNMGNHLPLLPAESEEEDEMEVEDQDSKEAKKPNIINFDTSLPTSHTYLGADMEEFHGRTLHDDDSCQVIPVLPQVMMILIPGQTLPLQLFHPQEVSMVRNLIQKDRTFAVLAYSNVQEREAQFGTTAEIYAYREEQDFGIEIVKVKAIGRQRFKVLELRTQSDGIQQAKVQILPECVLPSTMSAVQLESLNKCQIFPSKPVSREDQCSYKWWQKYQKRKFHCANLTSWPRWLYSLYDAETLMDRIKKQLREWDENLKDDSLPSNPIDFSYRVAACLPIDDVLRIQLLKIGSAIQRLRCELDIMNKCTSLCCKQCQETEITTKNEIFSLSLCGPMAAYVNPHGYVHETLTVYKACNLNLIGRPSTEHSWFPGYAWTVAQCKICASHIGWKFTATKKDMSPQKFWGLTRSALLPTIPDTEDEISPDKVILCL
Chain of CK1α (Q16531 whole entry partner): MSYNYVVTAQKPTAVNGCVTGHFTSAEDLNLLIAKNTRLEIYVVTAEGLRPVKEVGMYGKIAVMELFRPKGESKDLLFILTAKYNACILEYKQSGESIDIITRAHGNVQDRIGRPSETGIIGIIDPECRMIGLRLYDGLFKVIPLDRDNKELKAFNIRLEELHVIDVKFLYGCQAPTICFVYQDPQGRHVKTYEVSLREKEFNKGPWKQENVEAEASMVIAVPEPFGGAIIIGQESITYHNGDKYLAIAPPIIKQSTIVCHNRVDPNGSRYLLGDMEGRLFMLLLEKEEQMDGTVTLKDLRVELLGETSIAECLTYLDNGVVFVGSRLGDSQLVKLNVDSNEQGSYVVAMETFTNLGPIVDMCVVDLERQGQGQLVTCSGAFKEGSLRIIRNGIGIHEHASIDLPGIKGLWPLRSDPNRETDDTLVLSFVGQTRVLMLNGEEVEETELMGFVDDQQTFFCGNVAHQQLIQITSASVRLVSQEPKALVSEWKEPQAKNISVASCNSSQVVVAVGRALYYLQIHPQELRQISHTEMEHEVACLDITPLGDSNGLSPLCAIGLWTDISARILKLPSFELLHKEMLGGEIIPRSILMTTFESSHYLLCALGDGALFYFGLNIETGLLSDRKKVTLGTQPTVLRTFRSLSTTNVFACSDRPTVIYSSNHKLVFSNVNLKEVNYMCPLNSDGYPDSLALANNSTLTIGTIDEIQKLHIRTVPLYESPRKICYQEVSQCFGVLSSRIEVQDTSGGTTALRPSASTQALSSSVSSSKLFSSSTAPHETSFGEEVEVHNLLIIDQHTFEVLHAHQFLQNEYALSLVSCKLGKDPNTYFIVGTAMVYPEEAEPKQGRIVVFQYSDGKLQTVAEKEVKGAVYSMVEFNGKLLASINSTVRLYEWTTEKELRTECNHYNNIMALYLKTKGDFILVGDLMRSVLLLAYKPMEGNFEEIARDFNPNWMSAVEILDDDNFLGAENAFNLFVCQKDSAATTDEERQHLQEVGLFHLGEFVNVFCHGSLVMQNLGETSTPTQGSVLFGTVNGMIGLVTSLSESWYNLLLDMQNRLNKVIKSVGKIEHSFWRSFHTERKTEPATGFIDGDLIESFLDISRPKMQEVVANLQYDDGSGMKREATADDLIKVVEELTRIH

With `O=C1CCC(N2Cc3cc(Nc4noc5ccccc45)ccc3C2=O)C(=O)N1` (centres unmarked) [SJ3149] as the compound, how does the “CK1a quantified western blot signal, group mean (Mean 2)” value (50 mg/kg 1x/day) read?
The value was 0.3507.

And the “CK1a quantified western blot signal, individual animals” value (50 mg/kg 1x/day)?
The value was 0.2018 and 0.4461 and 0.4041.

And the “CK1a quantified western blot signal, group mean (Mean 2)” value (50 mg/kg 2x/day)?
Its value is 0.212.

What about the “CK1a quantified western blot signal, individual animals” value (50 mg/kg 2x/day) of the same compound?
Its value is 0.07248 and 0.5016 and 0.06191.

And the “CK1a quantified western blot signal, group mean (Mean 2)” value (100 mg/kg 1x/day)?
The value was 0.4998.

What about the “CK1a quantified western blot signal, individual animals” value (100 mg/kg 1x/day) of the same compound?
Its value is 0.1574 and 0.8298 and 0.5123.

And the “CK1α protein level in vivo” value (IP 50 mg/kg once per day)?
Its value is “significant degradation of CK1α”.

And the “CK1α protein level in vivo” value (IP 50 mg/kg twice per day)?
Its value is “significant degradation of CK1α”.
